Assays:
S.pneumoniae SR16675 = assay: MIC by agar dilution method; assay type: cell-based; conditions: S.pneumoniae SR16675, G(+)
Method: (§1) The minimal inhibitory concentration (MIC) of compound (I) against various bacteria was determined by an agar dilution method. As reference compounds, used were cefozopran hydrochloride (CZOP) described in JP(A) Kokai H03-47189, cefoselis sulfate (CFSL) described in JP(A) Kokai H07-196665 and WO97/41128, compound A of which 3-side chain is a type of imidazo[4,5-c]pyridiniummethyl, and vancomycin. In the table, “Ex5-3”, for example, represents the end compound of the present invention obtained in Example 5-3, and the others are similarly expressed.

E.cloacae SR4321 = assay: MIC by agar dilution method; assay type: cell-based; conditions: E.cloacae SR4321, G(−)
Method: as §1

S.aureus SR3626 = assay: MIC by agar dilution method; assay type: cell-based; conditions: S.aureus SR3626 (MRSA), G(+)
Method: as §1

P.vulgaris CN-329 = assay: MIC by agar dilution method; assay type: cell-based; conditions: P.vulgaris CN-329, G(−)
Method: as §1

S.mitis SR16376 = assay: MIC by agar dilution method; assay type: cell-based; conditions: S.mitis SR16376, G(+)
Method: as §1

E.coli SR5028 = assay: MIC by agar dilution method; assay type: cell-based; conditions: E.coli SR5028, G(−)
Method: as §1

S.aureus SR14 = assay: MIC by agar dilution method; assay type: cell-based; conditions: S.aureus SR14, G(+)
Method: as §1

P.aeruginosae SR5393 = assay: MIC by agar dilution method; assay type: cell-based; conditions: P.aeruginosae SR5393, G(−)
Method: as §1

E.cloacae ATCC 13047 = assay: MIC by agar dilution method; assay type: cell-based; conditions: E.cloacae ATCC 13047, G(−)
Method: as §1

S.aureus SR3637 [1] = assay: MIC by agar dilution method; assay type: cell-based; conditions: S.aureus SR3637 (MRSA), G(+)
Method: as §1

E.faecalis SR1004 = assay: MIC by agar dilution method; assay type: cell-based; conditions: E.faecalis SR1004, G(+)
Method: as §1

E.coli NIH JC-2 = assay: MIC by agar dilution method; assay type: cell-based; conditions: E.coli NIH JC-2, G(−)
Method: as §1

S.pneumoniae Type 1 = assay: MIC by agar dilution method; assay type: cell-based; conditions: S.pneumoniae Type 1, G(+)
Method: as §1

S.marvescens ATCC 13880 = assay: MIC by agar dilution method; assay type: cell-based; conditions: S.marvescens ATCC 13880, G(−)
Method: as §1

S.aureus SMITH = assay: MIC by agar dilution method; assay type: cell-based; conditions: S.aureus SMITH, G(+)
Method: as §1

P.aeruginosa SR24 = assay: MIC by agar dilution method; assay type: cell-based; conditions: P.aeruginosa SR24, G(−)
Method: as §1

S.aureus SR3637 [2] = assay: ED50 mouse/S.aureus SR3637; assay type: in vivo

Compound	MIC (S.pneumoniae SR16675) [µg/mL]	MIC (E.cloacae SR4321) [µg/mL]	MIC (S.aureus SR3626) [µg/mL]	MIC (P.vulgaris CN-329) [µg/mL]	MIC (S.mitis SR16376) [µg/mL]	MIC (E.coli SR5028) [µg/mL]	MIC (S.aureus SR14) [µg/mL]	MIC (P.aeruginosae SR5393) [µg/mL]	MIC (E.cloacae ATCC 13047) [µg/mL]	MIC (S.aureus SR3637 [1]) [µg/mL]	MIC (E.faecalis SR1004) [µg/mL]	MIC (E.coli NIH JC-2) [µg/mL]	MIC (S.pneumoniae Type 1) [µg/mL]	MIC (S.marvescens ATCC 13880) [µg/mL]	MIC (S.aureus SMITH) [µg/mL]	MIC (P.aeruginosa SR24) [µg/mL]	ED50 (S.aureus SR3637 [2]) [mg/kg]
CNCCCn1cnc2c1ccc[n+]2CC1=C(C(=O)[O-])N2C(=O)C(NC(=O)C(=NOCF)c3nsc(N)n3)C2SC1.Cl (centres unmarked) [Ex6-3]	0.78	12.5	6.25	0.39	0.2	1.56	0.78	6.25	0.78	6.25	50	0.2	0.025	0.2	0.78	3.13	6.43
CCON=C(C(=O)NC1C(=O)N2C(C(=O)[O-])=C(C[n+]3cccc4c3ncn4C3CCNC3)CSC12)c1nsc(N)n1.Cl (centres unmarked) [Ex4-1]	0.39	25	3.13	0.78	0.1	3.13	1.56	3.13	0.78	6.25	50	0.2	0.025	0.2	0.78	0.78	11.3
CCON=C(C(=O)NC1C(=O)N2C(C(=O)[O-])=C(C[n+]3cccc4c3ncn4CCCNC)CSC12)c1nsc(N)n1.Cl (centres unmarked) [Ex6-2]	0.78	25	3.13	0.78	0.1	3.13	1.56	6.25	0.78	3.13	50	0.39	0.025	0.39	1.56	1.56	7.92
Cl.NCCCn1cnc2c1ccc[n+]2CC1=C(C(=O)[O-])N2C(=O)C(NC(=O)C(=NOCF)c3nsc(N)n3)C2SC1 (centres unmarked) [Ex5-3]	0.78	12.5	3.13	0.39	0.2	1.56	0.78	6.25	0.39	3.13	100	0.1	0.025	0.1	0.78	1.56	5.66

— US6800621B2, “Imidazo[4,5-b]-pyridiniummethyl-containing cephem compounds having broad antibacterial spectrum activity” (Shionogi & Co., Ltd., priority 1998, dated 2004)
